Experimental data as given in ChEMBL document CHEMBL1150330, “Muscarinic antagonists with multiple stereocenters: Synthesis, affinity profile and functional activity of isomeric 1-methyl-2-(2,2-alkylaryl-1,3-oxathiolan-5-yl)pyrrolidine sulfoxide derivatives” (Bioorg Med Chem, 2008).

How the values were obtained:
[1] = molecular target: T1, Muscarinic acetylcholine receptor M1 (Homo sapiens, UniProt P11229); assay: Displacement of [3H]NMS from human muscarinic M1 receptor expressed in CHO cells; format: cell-based
T1 sequence (P11229 whole entry): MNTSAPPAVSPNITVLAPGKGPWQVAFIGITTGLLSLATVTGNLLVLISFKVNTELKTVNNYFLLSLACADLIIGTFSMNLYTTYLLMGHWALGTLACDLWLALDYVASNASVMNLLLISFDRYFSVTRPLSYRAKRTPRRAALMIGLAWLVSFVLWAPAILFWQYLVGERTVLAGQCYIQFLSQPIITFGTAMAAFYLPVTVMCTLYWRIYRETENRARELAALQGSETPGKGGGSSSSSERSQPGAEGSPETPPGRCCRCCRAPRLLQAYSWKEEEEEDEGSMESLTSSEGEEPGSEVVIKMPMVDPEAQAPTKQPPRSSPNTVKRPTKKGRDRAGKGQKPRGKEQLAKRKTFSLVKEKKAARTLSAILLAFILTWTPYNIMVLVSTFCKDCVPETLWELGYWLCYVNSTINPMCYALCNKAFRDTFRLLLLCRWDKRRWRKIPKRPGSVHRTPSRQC

[2] = molecular target: T2, Muscarinic acetylcholine receptor M2 (Homo sapiens, UniProt P08172); assay: Displacement of [3H]NMS from human muscarinic M2 receptor expressed in CHO cells; format: cell-based
T2 sequence (P08172 whole entry): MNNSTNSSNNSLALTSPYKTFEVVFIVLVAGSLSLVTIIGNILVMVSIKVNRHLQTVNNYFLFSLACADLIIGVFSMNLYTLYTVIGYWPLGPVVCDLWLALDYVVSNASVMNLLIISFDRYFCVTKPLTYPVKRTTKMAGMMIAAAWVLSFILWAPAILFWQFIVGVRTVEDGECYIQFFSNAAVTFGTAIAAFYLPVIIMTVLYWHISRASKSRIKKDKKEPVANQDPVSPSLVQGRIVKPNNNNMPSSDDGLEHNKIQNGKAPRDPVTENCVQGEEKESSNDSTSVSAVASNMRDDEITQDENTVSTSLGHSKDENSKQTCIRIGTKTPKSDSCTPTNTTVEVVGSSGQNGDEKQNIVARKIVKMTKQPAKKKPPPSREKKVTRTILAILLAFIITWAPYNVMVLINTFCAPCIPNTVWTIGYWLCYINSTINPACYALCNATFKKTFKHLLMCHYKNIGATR

[3] = molecular target: Muscarinic acetylcholine receptor M3 (Homo sapiens, UniProt P20309); assay: Displacement of [3H]NMS from human muscarinic M3 receptor expressed in CHO cells; format: cell-based
Sequence of Muscarinic acetylcholine receptor M3 (P20309 whole entry): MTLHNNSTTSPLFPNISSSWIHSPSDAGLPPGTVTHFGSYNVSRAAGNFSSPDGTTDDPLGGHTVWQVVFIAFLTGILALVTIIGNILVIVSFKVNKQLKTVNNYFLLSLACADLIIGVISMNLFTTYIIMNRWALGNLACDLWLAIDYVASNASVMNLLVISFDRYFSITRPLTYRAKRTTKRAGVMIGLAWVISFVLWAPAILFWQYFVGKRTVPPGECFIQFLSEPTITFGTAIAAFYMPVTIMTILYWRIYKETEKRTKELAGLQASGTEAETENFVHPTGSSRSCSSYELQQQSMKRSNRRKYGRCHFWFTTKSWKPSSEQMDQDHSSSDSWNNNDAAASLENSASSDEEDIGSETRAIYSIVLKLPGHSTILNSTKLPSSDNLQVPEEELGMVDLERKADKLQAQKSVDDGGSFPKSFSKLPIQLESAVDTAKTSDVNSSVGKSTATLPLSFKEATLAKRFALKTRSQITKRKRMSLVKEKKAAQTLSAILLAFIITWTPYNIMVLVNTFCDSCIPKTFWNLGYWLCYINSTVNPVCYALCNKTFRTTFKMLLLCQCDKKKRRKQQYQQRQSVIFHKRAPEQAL

[4] = molecular target: T3, Muscarinic acetylcholine receptor M4 (Homo sapiens, UniProt P08173); assay: Displacement of [3H]NMS from human muscarinic M4 receptor expressed in CHO cells; format: cell-based
T3 sequence (P08173 whole entry): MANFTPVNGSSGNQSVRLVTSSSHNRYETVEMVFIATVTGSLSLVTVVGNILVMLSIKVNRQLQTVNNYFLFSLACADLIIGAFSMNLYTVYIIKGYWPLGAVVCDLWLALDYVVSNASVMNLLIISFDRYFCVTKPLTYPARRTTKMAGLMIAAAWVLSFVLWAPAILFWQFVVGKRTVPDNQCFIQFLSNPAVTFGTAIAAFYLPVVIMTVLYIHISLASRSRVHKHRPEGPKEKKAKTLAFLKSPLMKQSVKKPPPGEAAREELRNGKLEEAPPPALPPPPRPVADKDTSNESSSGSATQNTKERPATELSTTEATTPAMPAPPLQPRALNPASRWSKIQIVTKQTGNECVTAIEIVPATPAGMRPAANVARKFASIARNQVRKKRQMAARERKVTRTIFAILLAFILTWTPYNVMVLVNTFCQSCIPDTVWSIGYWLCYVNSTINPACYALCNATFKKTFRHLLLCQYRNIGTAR

[5] = molecular target: T4, Muscarinic acetylcholine receptor M5 (Homo sapiens, UniProt P08912); assay: Displacement of [3H]NMS from human muscarinic M5 receptor expressed in CHO cells; format: cell-based
T4 sequence (P08912 whole entry): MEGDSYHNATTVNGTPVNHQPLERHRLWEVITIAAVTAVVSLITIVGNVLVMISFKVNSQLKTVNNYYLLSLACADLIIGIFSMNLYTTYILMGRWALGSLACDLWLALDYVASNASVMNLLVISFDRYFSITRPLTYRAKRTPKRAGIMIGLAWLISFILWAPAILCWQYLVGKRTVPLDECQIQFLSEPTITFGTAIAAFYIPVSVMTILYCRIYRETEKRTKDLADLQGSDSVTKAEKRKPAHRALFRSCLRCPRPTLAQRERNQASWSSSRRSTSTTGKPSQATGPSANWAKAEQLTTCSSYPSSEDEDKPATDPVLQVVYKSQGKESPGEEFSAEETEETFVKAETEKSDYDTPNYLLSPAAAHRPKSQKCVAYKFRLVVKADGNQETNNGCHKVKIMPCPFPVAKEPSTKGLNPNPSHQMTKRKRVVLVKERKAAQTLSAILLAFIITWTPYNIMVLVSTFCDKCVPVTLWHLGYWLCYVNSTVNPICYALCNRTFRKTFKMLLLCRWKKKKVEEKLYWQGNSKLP

[6] = Antagonist activity against muscarinic M2 receptor in guinea pig atria assessed as effect on electrically-stimulated atria; format: functional, Cavia porcellus
[7] = Antagonist activity against muscarinic M3 receptor in guinea pig ileum assessed as effect on ileum tension; format: functional, Cavia porcellus
[8] = Antagonist activity against muscarinic M4 receptor in guinea pig lung strip assessed as effect on electrically-stimulated contraction; format: functional, Cavia porcellus

Row | Structure (SMILES) | Ki [1] [nM] | Ki [2] [nM] | Ki [3] [nM] | Ki [4] [nM] | Ki [5] [nM] | pKb [6] | pKb [7] | pKb [8]
1 | C[N+]1(C)CCC[C@H]1[C@H]1C[S+]([O-])C(c2ccccc2)(c2ccccc2)O1.[I-] (stereo in doubt; (-)-11) | 15.8 | 41.7 | 51.3 | 105 | 30.2 | 6.93 | 7.89 | <5
2 | C[N+]1(C)CCC[C@@H]1[C@@H]1C[S+]([O-])[C@](c2ccccc2)(C2CCCCC2)O1.[I-] (stereo in doubt; (-)-12) | 56.2 | 85.1 | 288 | 316 | 195 | 7.91 | 7.11 | 7.45
3 | C[N+]1(C)CCC[C@@H]1[C@@H]1C[S+]([O-])[C@](c2ccccc2)(C2CCCCC2)O1.[I-] (stereo in doubt; (-)-13) | 117 | 95.5 | 324 | 468 | 302 | 7.51 | 7.22 | 6.06
4 | C[N+]1(C)CCC[C@H]1[C@H]1C[S+]([O-])[C@](c2ccccc2)(C2CCCCC2)O1.[I-] (stereo in doubt; (-)-14) | 155 | 550 | 324 | 603 | 331 | 6.03 | 6.68 | 5.24
5 | C[N+]1(C)CCC[C@H]1[C@H]1C[S+]([O-])[C@](c2ccccc2)(C2CCCCC2)O1.[I-] (stereo in doubt; (-)-15) | 19.5 | 57.5 | 77.6 | 112 | 41.7 | 6.92 | 7.9 | 5.64
